Laboratory results: patent US20220047563A1, “COMBINATION THERAPY FOR THE TREATMENT OF ESTROGEN-RECEPTOR POSITIVE BREAST CANCER” (ZENITH EPIGENETICS LTD., priority 2018, published 2022)

Legend:
Format in all cases: cell-based
[1] = test system: MCF7, Palbo-R-MCF7, ZR-75-1, Abema-R MCF7, and Palbo-R ZR-75-1 cells; assay: Cell viability (CellTiter Fluor), combination of Compound I with abemaciclib, ER+ breast cancer cell line panel; conditions: 7 days
Procedure: (§1) MCF7, Palbo-R-MCF7, ZR-75-1, Abema-R MCF7, and Palbo-R ZR-75-1 cells were plated at a density of 7,500 cells per well in 96 well flat bottom plates in 1640-RPMI media containing 10% FBS and penicillin/streptomycin and incubated for 24 hours at 37° C., 5% CO2. Media was replaced with 1640-RPM I containing 10% FBS with constant ratios of either Compound I or abemaciclib as single agents, or a combination of both drugs at four different concentrations (2× IC50, 1× IC50, 0.5× IC50, 0.25× IC50), and incubated at 37° C., 5% CO2 for 7 days. The cells were retreated as described above on the 3rd or 4th day. Triplicate wells were used for each concentration and wells containing only media with 0.1% DMSO were used as a control. […] Fluorescence at 380-400 nm Excitation/505 nm Emission was read in a fluorometer and the percentage of cell titer relative to DMSO-treated cells was calculated after correcting for background by subtracting the blank well's signal. IC50 values for single agents were calculated using the GraphPad Prism software. Quantification of synergy was done by calculating combination indices (CI) using the CalcuSyn software (Biosoft) based on the Chou-Talalay algorithm (Chou and Talalay, 1984), and averaging the CI values for the effective doses (ED) 50, 75, and 90.

ZR-75-1 cells = assay: Cell viability (CellTiter Fluor), combination of Compound I with abemaciclib, ZR-75-1; conditions: 7 days, average of CI at ED50, 75, 90 (Chou-Talalay)
Procedure: as §1

Abema-R MCF7 cells = assay: Cell viability (CellTiter Fluor), combination of Compound I with abemaciclib, Abema-R MCF7; conditions: 7 days, average of CI at ED50, 75, 90 (Chou-Talalay)
Procedure: as §1

Palbo-R ZR-75-1 cells = assay: Cell viability (CellTiter Fluor), combination of Compound I with abemaciclib, Palbo-R ZR-75-1; conditions: 7 days, average of CI at ED50, 75, 90 (Chou-Talalay)
Procedure: as §1

WT-MCF7 cells [2] = assay: Cell viability (CellTiter Fluor), combination of Compound I with abemaciclib, WT-MCF7; conditions: 7 days, average of CI at ED50, 75, 90 (Chou-Talalay)
Procedure: as §1

WT-MCF7 cells [3] = assay: Cell viability (CellTiter Fluor), combination of Compound I with fulvestrant, MCF7; conditions: 7 days
Procedure: MCF7 cells were plated at a density of 7,500 cells per well in 96 well flat bottom plates in phenol-red free 1640-RPMI media containing 10% charcoal-stripped FBS and penicillin/streptomycin and incubated for 24 hours at 37° C., 5% CO2. Media was replaced with phenol-red free 1640-RPM I media containing 10% charcoal-stripped FBS and penicillin/streptomycin treated with constant ratios of either Compound I or fulvestrant as single agents, or a combination of both drugs at four different concentrations (2× IC50, 1× IC50, 0.5× IC50, 0.25× IC50), and incubated at 37° C., 5% CO2 for 7 days. The cells were retreated as described above on the 3rd or 4th day. Triplicate wells were used for each concentration and wells containing only media with 0.1% DMSO were used as a control. […] Fluorescence at 380-400 nm Excitation/505 nm Emission was read in a fluorometer and the percentage of cell titer relative to DMSO-treated cells was calculated after correcting for background by subtracting the blank well's signal. IC50 values for single agents were calculated using the GraphPad Prism software. Quantification of synergy was done by calculating combination indices (CI) using the CalcuSyn software (Biosoft) based on the Chou-Talalay algorithm (Chou and Talalay, 1984), and averaging the CI values for the effective doses (ED) 50, 75, and 90.

Palbo-R-MCF7 cells = assay: Cell viability (CellTiter Fluor), combination of Compound I with abemaciclib, Palbo-R-MCF7; conditions: 7 days, average of CI at ED50, 75, 90 (Chou-Talalay)
Procedure: as §1

SMILES: CNc1nc2ncc(-c3c(C)noc3C)cc2n1Cc1ccccc1 [Compound I, 1-benzyl-6-(3,5-dimethylisoxazol-4-yl)-N-methyl-1H-imidazo[4,5-b]pyridine-2-amine]
- inhibition of cell viability, combination versus single agents ([1]; addition of Compound I to abemaciclib, five cell lines): improved inhibition of cell viability compared to either single agent
- average CI value ([1]; combination with abemaciclib, depending upon the cell line (five cell lines)): 0.08-0.35
- CI (combination index) (ZR-75-1 cells): 0.14
- CI (combination index) (Abema-R MCF7 cells): 0.30
- CI (combination index) (Palbo-R ZR-75-1 cells): 0.35
- CI (combination index) (WT-MCF7 cells [2]): 0.08
- inhibition of cell viability, combination versus single agents (WT-MCF7 cells [3]; addition of Compound I to fulvestrant): improved inhibition of cell viability compared to either single agent
- CI (combination index) (WT-MCF7 cells [3]; combination with fulvestrant, charcoal-stripped FBS, phenol-red free media, average of CI at ED50, 75, 90 (Chou-Talalay)): 0.51
- CI (combination index) (Palbo-R-MCF7 cells): 0.20
